Values of other authors, collected in patent publication US20240315301A1, “Composition for Improving Vision” (ALGAE HEALTH SCIENCES CO., LTD., priority 2021, published 2024).

Details: fold more than vitamin E

Question: Which “antioxidant activity relative to vitamin E (VE)” value does the source give for `CC1=C(/C=C/C(C)=C/C=C/C(C)=C/C=C/C=C(C)/C=C/C=C(C)/C=C/C2=C(C)C(=O)C(O)CC2(C)C)C(C)(C)CC(O)C1=O` (stereo not drawn) [Astaxanthin, 3, 3′-dihydroxy-β, β-carotene-4, 4′-dione] here?
Answer: 1000 times
